Results reported in PMC12392461, “Beyond Estrogenicity: A Comparative Assessment of Bisphenol A and Its Alternatives in In Vitro Assays Questions Safety of Replacements” (Environmental Science & Technology, 2025).

Key:
[1] = target: T1, Aryl hydrocarbon receptor (Rattus norvegicus, UniProt P41738); details: for EC10, linear / logEC10 / EC10, linear transformed: Bioassay AhR, dosing range all; for EC10, linear: linear model fit; for logEC10: log-logistic model fit; for log(1/EC10) AhR: input of the ToxPi score, values up to 1.00; for SR-ScoreAhR: SR-Score, sigma k=1, x=5; for EC10, AhR: effect; for Specificity ratio (SRbaseline) SRAhR: against baseline cytotoxicity; for Specificity ratio (SRcytotoxicity) SRAhR: against experimental cytotoxicity
T1 sequence (P41738 10-853): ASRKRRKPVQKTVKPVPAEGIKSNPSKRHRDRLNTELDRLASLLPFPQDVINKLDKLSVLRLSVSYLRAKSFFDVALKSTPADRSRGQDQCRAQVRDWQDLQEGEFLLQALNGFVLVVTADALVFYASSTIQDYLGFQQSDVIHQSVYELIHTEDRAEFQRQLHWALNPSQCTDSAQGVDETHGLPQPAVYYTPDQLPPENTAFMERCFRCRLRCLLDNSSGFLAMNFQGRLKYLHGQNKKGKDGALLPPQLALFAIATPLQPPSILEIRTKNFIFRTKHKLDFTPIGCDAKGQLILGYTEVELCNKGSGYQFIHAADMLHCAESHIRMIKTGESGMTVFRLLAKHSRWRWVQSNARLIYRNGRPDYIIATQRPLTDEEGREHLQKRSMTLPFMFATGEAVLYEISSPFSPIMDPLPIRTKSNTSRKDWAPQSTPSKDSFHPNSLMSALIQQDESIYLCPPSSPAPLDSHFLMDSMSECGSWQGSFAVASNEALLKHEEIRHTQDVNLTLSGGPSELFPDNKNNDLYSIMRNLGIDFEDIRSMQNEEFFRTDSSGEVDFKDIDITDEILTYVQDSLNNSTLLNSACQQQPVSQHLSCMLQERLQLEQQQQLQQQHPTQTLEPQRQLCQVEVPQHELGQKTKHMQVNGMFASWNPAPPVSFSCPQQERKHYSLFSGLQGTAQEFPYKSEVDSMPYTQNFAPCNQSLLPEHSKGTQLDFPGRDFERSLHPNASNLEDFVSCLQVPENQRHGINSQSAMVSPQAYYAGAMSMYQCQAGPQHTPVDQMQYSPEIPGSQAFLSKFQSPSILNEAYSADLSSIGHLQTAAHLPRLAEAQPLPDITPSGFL
Excerpt: All bioassay media components and the ERα-UAS-bla GripTite and PPARγ-UAS-bla cells were obtained from Thermo Fisher Scientific (Waltham, MA, USA). AREc32 reporter gene cells based on MCF7 were provided by C. Roland Wolf (Cancer Research UK); AhR CALUX cells (H4L7.5c2 derived from H4IIe) were provided by Michael Denison (UC Davis, USA); and SH-SY5Y cells were purchased from Sigma-Aldrich.
Cell culture conditions and bioassay protocols including response detection are provided in Text S2.1–2.4 and Table S3. − Cell viability was determined from cell confluency using an IncuCyte S3 Live-Cell Analysis System (Sartorius AG, Essen, Germany) before and after exposure, except for SH-SY5Y cells (live–dead staining with Nuclear Green LcS1 and propidium iodide, Abcam, UK). For metabolic activation experiments, cell viability was assessed using the ToxBLAzer DualScreen Kit (Thermo Fisher Scientific) to capture the remaining toxicity in ERα-UAS-bla GripTite after treatment with the aCYP catalyst (details in Text S2.4).
For ARE, the concentration that triggered an induction ratio of 1.5 (ECIR1.5) was used as the benchmark value, as detailed in Text S2.5. IC10 values also served as a threshold for data analysis in all assays; only concentrations below IC10 were considered when deriving EC10 or ECIR1.5. […]
S2: Cell culture and bioassays
S2.1: Cell Culturing Conditions
All suppliers and sources are given in detail in SI-Excel S3. The bioassay media for the different assays were prepared as follows: Assay medium for ER alpha-UAS-bla GripTite (ERα) and PPAR gamma-UAS-bla 293H (PPARγ) was prepared with 98% Opti-MEM, supplemented with 2% charcoal-stripped FBS, and 100 U/mL penicillin-streptomycin. MitoOxTox and AhR assay medium was comprised of 90% DMEM with GlutaMAX, supplemented with 10% FBS, and 100 U/mL penicillin-streptomycin. Neurotoxicity assay medium consisted of the neurobasal […]
(1 picture or pasted object on this page, not shown here) […]
medium, supplemented with 2% B-27 Supplement and 2 mM GlutaMAX Supplement. SH - SY5Y cells were differentiated with 10 µM all-trans retinoic acid prior to the assay.
S2.2: Cell Seeding and Incubation. For all bioassays, cell suspensions in the respective assay medium were dispensed into each well of 384-well plates using a MultiFlo Dispenser (Biotek, (now Agilent), Winooski, VT, U.S.). After seeding, the plates were incubated at 37° C and 5% CO₂ for […]. The final cell densities and plate types were as follows: Black poly-D-lysine coated 384-well plates (Product No. 354663, Corning Inc., NYC, U.S.) were used for PPARγ:
6500 cells/well, ERα: 5000 cells/well. White 384-well plates with a clear bottom (Product No.
781098, Greiner, Kremsmünster, Austria) were utilized for the MitoOxTox assay: 2650

[2] = Acidity constant (pKa) measurement, Sirius T3 UV-metric, and speciation at pH 7.4; details: for Double negative form (pH = 7.40) / Negative form (pH = 7.40) / Neutral form (pH = 7.40) / αneutral % (fraction of neutral species): from experimental pKa; for αneutral % (fraction of neutral species): pH 7.4; for pKa: pKa (Acid)
Description: Physicochemical properties provide input parameters for the baseline toxicity model. Acidity constants (pK a) and octanol–water partition constants of the neutral species (K ow) were measured with a Sirius T instrument from Pion Inc. (Sussex, UK) (Text S1.2 and Table S1). A detailed description of the pK a and K ow measurements can be found in literature. , […]
S1.2: pKa and log Kow measurements […]
titrator (Pion Inc., Sussex, U.K.). A detailed description of the experimental procedure is available in the literature.1 In brief, each sample was prepared by mixing 5 µL of a 10 mM dimethyl sulfoxide (DMSO) stock solution with 25 µL of a phosphate buffer solution (14.4 mM […]
A reference vial containing 5 µL of DMSO
(Roth, A994-100 ML) and 25 µL of phosphate buffer was analyzed alongside each sample.
The pKa values were determined using the automated UV-metric pKa protocol within the Sirius T3 Control software (version 2.0.0.0.). Each sample was subjected to three consecutive […]
from 2 to 12 by stepwise addition of 0.5 M HCl or 0.5 M potassium hydroxide while recording […]
UV absorbance. […]
To ensure reproducibility, measurements were conducted on at least two

[3] = second pKa column, experimental, this study
[4] = phosphate buffer with […] KCl, Sirius T3 titrator, experimental, this study
[5] = phosphate buffer with […] KCl, Sirius T3 titrator, second pKa column, experimental, this study

Compound	EC10, linear [1]	logEC10 [1]	log(1/EC10) AhR [1]	Double negative form (pH = 7.40) [2] [%]	Negative form (pH = 7.40) [2] [%]	Neutral form (pH = 7.40) [2] [%]	αneutral % (fraction of neutral species) [2] [%]	pKa [2, 3]	pKa ([2]; experimental, this study)	pKa [2, 4]	pKa (Acid) [2]	pKa [2]	EC10, AhR (M) [1]	EC10, linear transformed [1]	SR-ScoreAhR [1]	EC10, AhR [1] [µM]	Specificity ratio (SRbaseline) SRAhR [1]	Specificity ratio (SRcytotoxicity) SRAhR [1]	pKa [2, 5]
CC(C)c1cc(C(C)(C)c2ccc(O)c(C(C)C)c2)ccc1O [BPG, 2,2-Bis(4-hydroxy-3-isopropylphenyl)propane]	no effect	no effect	0.96	4.07e-6	0.0363	100	100	11.3	10.8										
CC1(C)[C@H](O)C(C)(C)[C@H]1O [t-TMCD, trans-2,2,4,4-Tetramethyl-1,3-cyclobutanediol]			0.30		1e-6	100	100			15.4									
CCC(C)(c1ccc(O)cc1)c1ccc(O)cc1 [BPB, 4,4'-(Butane-2,2-diyl)diphenol]	no effect	no effect	0.83	0.000865	0.736	99	99				10.33	9.53							
CC(c1ccc(O)cc1)c1ccc(O)cc1 [BPE, 4,4′-Ethylidenbisphenol]	6.19E-05	-4.12		0.00576	2.24	98	98				9.99	9.04	6.19 × 10^–5 M	7.73E-05	0.0256	61.9			
COC(=O)C(c1ccc(O)cc1)c1ccc(O)cc1 [Bz, Methyl bis(4-hydroxyphenyl)acetate]	6.20E-05	-3.94		3	26	71	71			7.83			6.20 × 10^–5 M	5.80E-05	0.0375	62	5.57	1.75	8.34
CC(C)Oc1ccc(S(=O)(=O)c2ccc(O)cc2)cc1 [D8, 4-((4-Isopropoxyphenyl)sulfonyl)phenol]	no effect	no effect	0.75		39	61	61			7.6									
O=S(=O)(c1ccc(O)cc1)c1ccc(OCc2ccccc2)cc1 [BPS-MPE, 4-[4-(benzyloxy)benzenesulfonyl]phenol]	no effect	no effect	0.91		32	68	68			7.73									
Oc1ccc(Sc2ccc(O)cc2)cc1 [BPT, 4,4'-Thiodiphenol]	no effect	masked by cytotoxicity	0.82	0.0324	4.47	96	96			8.73				9.56E-05					9.54
CC(C)(c1cc(Cl)c(O)c(Cl)c1)c1cc(Cl)c(O)c(Cl)c1 [TCBPA, 2,2',6,6'-Tetrachlorobisphenol A]	1.69E-04	no effect	0.84	11	60	29	29				8.13	7.08		7.24E-05					
CC(C)(c1ccc(O)c(-c2ccccc2)c1)c1ccc(O)c(-c2ccccc2)c1 [BPPH, 2,2-Bis(2-hydroxy-5-biphenylyl)propane]	9.54E-06	-5.02	0.99	0.000533	0.825	99	99	10.6	9.48				9.54 × 10^–6 M	9.38E-06	0.0254	9.54	0.43	1.35	
O=S(=O)(c1ccc(O)cc1)c1ccc(O)cc1 [BPS, 4,4'-Sulfonyldiphenol]	no effect	no effect	0.68	9	52	39	39				8.16	7.28							
Oc1ccc(Cc2ccc(O)cc2)cc1 [BPF, Bis(4-hydroxyphenyl)methane]	1.67E-04	masked by cytotoxicity	0.66	0.000993	0.736	99	99				10.27	9.53		2.17E-04					
